{"source": "patent US20230404998A1", "about": "“Combination Therapies for Treating Cancer” (ASCENTAGE PHARMA (SUZHOU) CO., LTD., priority 2020, published 2023)", "key": {"BaF3(Bcr-Abl) T315M": {"target": "BaF3(Bcr-Abl) T315M (Homo sapiens, UniProt P00519, T315M, cells depend on it)", "details": "read-out: Anti-proliferation (IC50)", "description": "(§1) The anti-proliferative effect was determined by a water-soluble tetrazolium (WST)-based assay using Cell Counting Kit-8 (CCK-8, #D3100L4057, Shanghai life ilab bio technology co., LTD, China). Cells were seeded in 96-well plates and treated with different concentrations of test articles. […] Each treatment was tested in triplicates. The plate was then cultured at 37° C. with 5% CO2 for 72 hours. At the end of treatments, 20 μl/well of CCK-8 reagent was directly added to each wells. The plate was then incubated at 37° C. with 5% CO2 for 2-4 h. The OD value was detected at 450 nm on a microplate reader (SpectraMax I3X, Molecular Devices, US). IC50 values were calculated with Graphpad Prism 7.0 software using nonlinear regression (curve fitting) type data analysis. For combination effect assay, the cells viability was normalized using the mean OD value of triplicated wells for the single agent control."}, "[1]": {"target": "BaF3(Bcr-Abl) Y253H-F359V (Homo sapiens, UniProt P00519, Y253H/F359V, cells depend on it)", "details": "read-out: Anti-proliferation (IC50)", "description": "as §1"}, "BaF3(Bcr-Abl) F311I": {"target": "BaF3(Bcr-Abl) F311I (Homo sapiens, UniProt P00519, F311I, cells depend on it)", "details": "read-out: Anti-proliferation (IC50)", "description": "as §1"}, "[2]": {"target": "BaF3(Bcr-Abl) G250E-V299L (Homo sapiens, UniProt P00519, G250E/V299L, cells depend on it)", "details": "read-out: Anti-proliferation (IC50)", "description": "as §1"}, "BaF3(Bcr-Abl) V299L": {"target": "BaF3(Bcr-Abl) V299L (Homo sapiens, UniProt P00519, V299L, cells depend on it)", "details": "read-out: Anti-proliferation (IC50)", "description": "as §1"}, "BaF3(Bcr-Abl) M351T": {"target": "BaF3(Bcr-Abl) M351T (Homo sapiens, UniProt P00519, M351T, cells depend on it)", "details": "read-out: Anti-proliferation (IC50)", "description": "as §1"}, "BaF3(Bcr-Abl) M244V": {"target": "BaF3(Bcr-Abl) M244V (Homo sapiens, UniProt P00519, M244V, cells depend on it)", "details": "read-out: Anti-proliferation (IC50)", "description": "as §1"}, "BaF3(Bcr-Abl) E453K": {"target": "BaF3(Bcr-Abl) E453K (Homo sapiens, UniProt P00519, E453K, cells depend on it)", "details": "read-out: Anti-proliferation (IC50)", "description": "as §1"}, "[3]": {"target": "BaF3(Bcr-Abl) Y253H-E255V (Homo sapiens, UniProt P00519, Y253H/E255V, cells depend on it)", "details": "read-out: Anti-proliferation (IC50)", "description": "as §1"}, "[4]": {"target": "BaF3(Bcr-Abl) T315I-E459K (Homo sapiens, UniProt P00519, T315I/E459K, cells depend on it)", "details": "read-out: Anti-proliferation (IC50)", "description": "as §1"}, "BaF3(Bcr-Abl) T315I-255K": {"target": "BaF3(Bcr-Abl) T315I-255K (Homo sapiens, UniProt P00519, E255K/T315I, cells depend on it)", "details": "read-out: Anti-proliferation (IC50)", "description": "as §1"}, "BaF3(Bcr-Abl) E255K": {"target": "BaF3(Bcr-Abl) E255K (Homo sapiens, UniProt P00519, E255K, cells depend on it)", "details": "read-out: Anti-proliferation (IC50)", "description": "as §1"}, "[5]": {"target": "BaF3(Bcr-Abl) T315I-H396R (Homo sapiens, UniProt P00519, T315I/H396R, cells depend on it)", "details": "read-out: Anti-proliferation (IC50)", "description": "as §1"}, "BaF3(Bcr-Abl) G250E": {"target": "BaF3(Bcr-Abl) G250E (Homo sapiens, UniProt P00519, G250E, cells depend on it)", "details": "read-out: Anti-proliferation (IC50)", "description": "as §1"}, "[6]": {"target": "BaF3(Bcr-Abl) T315I-E453K (Homo sapiens, UniProt P00519, T315I/E453K, cells depend on it)", "details": "read-out: Anti-proliferation (IC50)", "description": "as §1"}, "BaF3(Bcr-Abl) T35I-F311I": {"target": "BaF3(Bcr-Abl) T35I-F311I (Homo sapiens, UniProt P00519, F311I/T315I, cells depend on it)", "details": "read-out: Anti-proliferation (IC50)", "description": "as §1"}, "BaF3(Bcr-Abl) T3151": {"target": "BaF3(Bcr-Abl) T3151 (Homo sapiens, UniProt P00519, T315I, cells depend on it)", "details": "read-out: Anti-proliferation (IC50)", "description": "as §1"}, "[7]": {"target": "BaF3(Bcr-Abl) T315I-E255V (Homo sapiens, UniProt P00519, E255V/T315I, cells depend on it)", "details": "read-out: Anti-proliferation (IC50)", "description": "as §1"}, "[8]": {"target": "BaF3(Bcr-Abl) T316I-M244V (Homo sapiens, UniProt P00519, M244V/T315I, cells depend on it)", "details": "read-out: Anti-proliferation (IC50)", "description": "as §1"}, "BaF3(Bcr-Abl) E255V": {"target": "BaF3(Bcr-Abl) E255V (Homo sapiens, UniProt P00519, E255V, cells depend on it)", "details": "read-out: Anti-proliferation (IC50)", "description": "as §1"}, "BaF3(Bcr-Abl) 7253H": {"target": "BaF3(Bcr-Abl) 7253H (Homo sapiens, UniProt P00519, Y253H, cells depend on it)", "details": "read-out: Anti-proliferation (IC50)", "description": "as §1"}, "[9]": {"target": "BaF3(Bcr-Abl) F317L-M351T (Homo sapiens, UniProt P00519, F317L/M351T, cells depend on it)", "details": "read-out: Anti-proliferation (IC50)", "description": "as §1"}, "[10]": {"target": "BaF3(Bcr-Abl) T315I-F317L (Homo sapiens, UniProt P00519, T315I/F317L, cells depend on it)", "details": "read-out: Anti-proliferation (IC50)", "description": "as §1"}, "[11]": {"target": "BaF3(Bcr-Abl) T315I-Y253H (Homo sapiens, UniProt P00519, Y253H/T315I, cells depend on it)", "details": "read-out: Anti-proliferation (IC50)", "description": "as §1"}, "BaF3(Bcr-Abl) E459L": {"target": "BaF3(Bcr-Abl) E459L (Homo sapiens, UniProt P00519, cells depend on it, form not given)", "details": "read-out: Anti-proliferation (IC50)", "description": "as §1"}, "FGFR": {"system": "FGFR", "assay": "Phosphorylation of FGFR and downstream proteins in cancer cells", "assay_type": "cell-based"}}}
{"smiles": "Cc1ccc(C(=O)Nc2ccc(CN3CCN(C)CC3)c(C(F)(F)F)c2)cc1C#Cc1cnc2[nH]ncc2c1", "note": "[HQP1351, 3-(2-(1H-pyrazolo[3,4-b]pyridin-5-yl)ethynyl)-4-methyl-N-(4-((4-methylpiperazin-1-yl)methyl)-3-(trifluoromethyl)phenyl)-benzamide]", "values": [{"measurement": "GI50", "setting": "BaF3(Bcr-Abl) T315M", "value": "0.217 ± 0.131", "unit": "µM"}, {"measurement": "GI50", "setting": "[1]", "value": "0.311 ± 0.035", "unit": "µM"}, {"measurement": "GI50", "setting": "BaF3(Bcr-Abl) F311I", "value": "0.023 ± 0.013", "unit": "µM"}, {"measurement": "GI50", "setting": "[2]", "value": "0.014 ± 0.002", "unit": "µM"}, {"measurement": "GI50", "setting": "BaF3(Bcr-Abl) V299L", "value": "0.008 ± 0.004", "unit": "µM"}, {"measurement": "GI50", "setting": "BaF3(Bcr-Abl) M351T", "value": "0.009 ± 0.001", "unit": "µM"}, {"measurement": "GI50", "setting": "BaF3(Bcr-Abl) M244V", "value": "0.041 ± 0.008", "unit": "µM"}, {"measurement": "GI50", "setting": "BaF3(Bcr-Abl) E453K", "value": 0.003, "unit": "µM"}, {"measurement": "GI50", "setting": "[3]", "value": 0.122, "unit": "µM"}, {"measurement": "GI50", "setting": "[4]", "value": "0.109 ± 0.004", "unit": "µM"}, {"measurement": "GI50", "setting": "BaF3(Bcr-Abl) T315I-255K", "value": "0.04 ± 0.005", "unit": "µM"}, {"measurement": "GI50", "setting": "BaF3(Bcr-Abl) E255K", "value": "0.022 ± 0.013", "unit": "µM"}, {"measurement": "GI50", "setting": "[5]", "value": "0.079 ± 0.054", "unit": "µM"}, {"measurement": "GI50", "setting": "BaF3(Bcr-Abl) G250E", "value": "0.029 ± 0.004", "unit": "µM"}, {"measurement": "GI50", "setting": "[6]", "value": "0.061 ± 0.027", "unit": "µM"}, {"measurement": "GI50", "setting": "BaF3(Bcr-Abl) T35I-F311I", "value": "0.078 ± 0.046", "unit": "µM"}, {"measurement": "GI50", "setting": "BaF3(Bcr-Abl) T3151", "value": "0.024 ± 0.01", "unit": "µM"}, {"measurement": "GI50", "setting": "[7]", "value": "0.026 ± 0.011", "unit": "µM"}, {"measurement": "GI50", "setting": "[8]", "value": "0.076 ± 0.053", "unit": "µM"}, {"measurement": "GI50", "setting": "BaF3(Bcr-Abl) E255V", "value": "0.027 ± 0.011", "unit": "µM"}, {"measurement": "GI50", "setting": "BaF3(Bcr-Abl) 7253H", "value": "0.007 ± 0.001", "unit": "µM"}, {"measurement": "GI50", "setting": "[9]", "value": "0.032 ± 0.025", "unit": "µM"}, {"measurement": "GI50", "setting": "[10]", "value": "0.117 ± 0.023", "unit": "µM"}, {"measurement": "GI50", "setting": "[11]", "value": "0.114 ± 0.001", "unit": "µM"}, {"measurement": "GI50", "setting": "BaF3(Bcr-Abl) E459L", "value": 0.106, "unit": "µM"}, {"measurement": "Phosphorylation of FGFR and downstream proteins", "setting": "FGFR", "value": "inhibiting phosphorylation of FGFR and downstream proteins"}]}
